This note sets out measurements from US20040259926A1, “3-Aryloxy and 3-heteroaryloxy substituted benzo[b]thiophenes as therapeutic agents” (priority 2003, published 2004).

Counter-ions that a name gives are not always drawn.

T1 sequence (P48736 whole entry, species assumed): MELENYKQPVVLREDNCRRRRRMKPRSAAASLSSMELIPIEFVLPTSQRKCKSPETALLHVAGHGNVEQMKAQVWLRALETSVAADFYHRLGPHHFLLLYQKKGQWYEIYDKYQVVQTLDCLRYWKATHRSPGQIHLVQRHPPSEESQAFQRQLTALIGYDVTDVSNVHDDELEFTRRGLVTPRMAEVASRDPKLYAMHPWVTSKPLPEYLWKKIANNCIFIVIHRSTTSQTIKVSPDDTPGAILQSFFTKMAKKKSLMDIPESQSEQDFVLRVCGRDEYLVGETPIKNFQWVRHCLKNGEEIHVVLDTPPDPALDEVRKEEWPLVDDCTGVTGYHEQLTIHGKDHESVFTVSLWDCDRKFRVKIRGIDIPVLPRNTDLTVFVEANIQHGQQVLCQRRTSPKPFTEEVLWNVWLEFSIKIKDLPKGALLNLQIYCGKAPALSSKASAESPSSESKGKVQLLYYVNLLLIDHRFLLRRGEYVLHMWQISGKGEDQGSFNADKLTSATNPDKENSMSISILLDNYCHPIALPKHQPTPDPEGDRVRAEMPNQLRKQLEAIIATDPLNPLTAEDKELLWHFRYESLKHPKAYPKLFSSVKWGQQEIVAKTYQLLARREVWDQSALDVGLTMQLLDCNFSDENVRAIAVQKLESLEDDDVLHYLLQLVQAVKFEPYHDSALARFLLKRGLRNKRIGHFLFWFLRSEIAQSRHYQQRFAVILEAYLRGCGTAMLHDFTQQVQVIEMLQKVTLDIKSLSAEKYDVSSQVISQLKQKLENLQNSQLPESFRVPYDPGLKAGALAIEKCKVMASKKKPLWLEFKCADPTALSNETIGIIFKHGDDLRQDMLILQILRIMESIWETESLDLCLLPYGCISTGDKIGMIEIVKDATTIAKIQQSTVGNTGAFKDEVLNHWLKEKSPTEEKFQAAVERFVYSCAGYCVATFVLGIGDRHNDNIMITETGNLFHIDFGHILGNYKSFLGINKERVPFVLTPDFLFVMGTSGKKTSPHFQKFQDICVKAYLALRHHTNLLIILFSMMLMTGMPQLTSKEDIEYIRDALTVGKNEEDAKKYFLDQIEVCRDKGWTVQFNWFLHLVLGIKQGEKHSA
T1 sequence (Q8WYR1 whole entry partner, species assumed): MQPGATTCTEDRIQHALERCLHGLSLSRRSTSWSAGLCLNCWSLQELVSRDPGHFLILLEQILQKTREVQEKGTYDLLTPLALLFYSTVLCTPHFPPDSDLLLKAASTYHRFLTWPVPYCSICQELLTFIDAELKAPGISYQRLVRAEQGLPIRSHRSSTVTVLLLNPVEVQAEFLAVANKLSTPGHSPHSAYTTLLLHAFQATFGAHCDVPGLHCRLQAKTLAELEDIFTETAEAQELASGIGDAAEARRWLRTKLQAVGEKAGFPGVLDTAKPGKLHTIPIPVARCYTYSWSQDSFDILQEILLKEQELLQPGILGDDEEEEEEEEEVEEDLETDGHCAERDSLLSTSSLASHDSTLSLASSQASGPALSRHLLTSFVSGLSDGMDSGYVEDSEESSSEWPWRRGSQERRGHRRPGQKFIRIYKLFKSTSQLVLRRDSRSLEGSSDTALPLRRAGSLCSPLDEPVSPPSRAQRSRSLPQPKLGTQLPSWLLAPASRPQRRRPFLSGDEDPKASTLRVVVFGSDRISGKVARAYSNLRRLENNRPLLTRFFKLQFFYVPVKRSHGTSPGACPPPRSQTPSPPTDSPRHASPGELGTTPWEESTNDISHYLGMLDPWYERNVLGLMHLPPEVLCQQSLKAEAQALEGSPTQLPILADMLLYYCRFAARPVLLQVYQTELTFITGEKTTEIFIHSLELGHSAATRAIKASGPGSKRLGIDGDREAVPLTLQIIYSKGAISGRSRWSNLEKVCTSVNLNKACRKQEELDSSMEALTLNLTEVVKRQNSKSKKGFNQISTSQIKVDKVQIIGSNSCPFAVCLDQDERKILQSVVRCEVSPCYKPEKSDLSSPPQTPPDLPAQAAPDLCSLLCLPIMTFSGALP

The test concerns the target T1, PI3Kγ (recombinant p101/p110γ protein) (Homo sapiens, UniProt P48736).
T1 construct: HA; made in house; host or cells: Spodoptera frugiperda (Sf9) cells, baculovirus co-infection
The test is described as follows: PI3Kγ In Vitro Kinase Assay. As to conditions: purified recombinant p101/p110γ with G protein β1/γ2 subunits; 20 μM ATP, [γ-32P-ATP]; 25 μM PIP2 lipid micelles; 20 minutes at room temperature. It is filed as biochemical. An outline of the steps: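 Baculovirus/Sf9-expressed p101/p110γ (~2.7 nM) with Gβ1/γ2 (~57.7 nM) in HEPES/NaCl/EGTA/DTT buffer; 20 μM ATP plus [γ-32P]ATP, micelles of 25 μM PIP2, 300 μM PE, 10 mM MgCl2. Reactions ran 20 minutes at room temperature; radiolabelled PIP3 captured on glass-fibre filters and counted for IC50.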
Turning to `COCC1(c2ccc(Oc3c(C(=O)Nc4nn[nH]n4)sc4cc(C)c(OC)cc34)cc2)CCCC1` [Example B.59, 5-Methoxy-3-[4-(1-methoxymethyl-cyclopentyl)-phenoxy]-6-methyl-benzo[b]thiophene-2-carboxylic acid (2H-tetrazol-5-yl)-amide], the IC50 amounted to 25 nM.
`COc1cc2sc(C(=O)Nc3nnn[nH]3)c(OCc3cccc(Br)c3)c2cc1OC` [Example C.2, 3-(3-Bromo-benzyloxy)-5,6-dimethoxy-benzo[b]thiophene-2-carboxylic acid (1H-tetrazol-5-yl)-amide]: the IC50 came out at 346 nM.
The figure for `COc1cc2c(Oc3ccc(CCC(=O)N4CCCCC4)cc3)c(C(=O)Nc3nn[nH]n3)sc2cc1C` [Example B.8, 5-Methoxy-6-methyl-3-[4-(3-oxo-3-piperidin-1-yl-propyl)-phenoxy]-benzo[b]thiophene-2-carboxylic acid (2H-tetrazol-5-yl)-amide] is 33 nM; for `COc1cc2c(Oc3ccc4c(c3)CCCC4)c(C(=O)Nc3nn[nH]n3)sc2cc1C` [Example B.11, 5-Methoxy-6-methyl-3-(5,6,7,8-tetrahydro-naphthalen-2yloxy)-benzo[b]thiophene-2-carboxylic acid (2H-tetrazol-5-yl)-amide] it is 86 nM.
Under `COc1cc2c(Oc3ccc(CC(=O)N4CCCCC4)cc3)c(C(=O)Nc3nn[nH]n3)sc2cc1C` [Example B.7, 5-Methoxy-6-methyl-3-[4-(2-oxo-2-piperidin-1-yl-ethyl)-phenoxy]-benzo[b]thiophene-2-carboxylic acid (2H-tetrazol-5-yl)-amide] stands 28 nM.
The figure for `COc1ccc(CCOc2c(C(=O)Nc3nnn[nH]3)sc3cc(OC)c(OC)cc23)cc1OC` [Example C.16, 3-[2-(3,4-Dimethoxy-phenyl)-ethoxy]-5,6-dimethoxy-benzo[b]thiophene-2-carboxylic acid (1H-tetrazol-5-yl)-amide] is 740 nM; for `COc1ccc2sc(C(=O)Nc3nn[nH]n3)c(Oc3ccc4ccccc4c3)c2c1` [Example A.10, 5-Methoxy-3-(naphthalene-2-yloxy)-benzo[b]thiophene-2-carboxylic acid (2H-tetrazol-5-yl)-amide] it is 390 nM; for `COc1cc2sc(C(=O)Nc3nnn[nH]3)c(OCc3cccc(N(C)C)c3)c2cc1OC` [Example C.19, 3-(3-Dimethylamino-benzyloxy)-5,6-dimethoxy-benzo[b]thiophene-2-carboxylic acid (1H-tetrazol-5-yl)-amide] it is 450 nM.
For the molecule `COc1cc2sc(C(=O)Nc3nnn[nH]3)c(OCc3cccnc3)c2cc1OC` [Example C.11, 5,6-Dimethoxy-3-(pyridin-3-ylmethoxy)-benzo[b]thiophene-2-carboxylic acid (1H-tetrazol-5-yl)-amide], the IC50 is 1480 nM.
Under `COc1cc2sc(C(=O)Nc3nnn[nH]3)c(O[C@H](C)Cc3ccccc3)c2cc1OC` [Example C.10, 5,6-Dimethoxy-3-((R)-1-methyl-2-phenyl-ethoxy)-benzo[b]thiophene-2-carboxylic acid (1H-tetrazol-5-yl)-amide] stands 1800 nM; under `COc1cc2sc(C(=O)Nc3nnn[nH]3)c(OCc3ccc(F)c(F)c3)c2cc1OC` [Example C.3, 3-(3,4-Difluoro-benzyloxy)-5,6-dimethoxy-benzo[b]thiophene-2-carboxylic acid (1H-tetrazol-5-yl)-amide], 3630 nM; under `COc1cc2sc(C(=O)Nc3nnn[nH]3)c(OCc3ccc(C(C)(C)C)cc3)c2cc1OC` [Example C.7, 3-(4-tert-Butyl-benzyloxy)-5,6-dimethoxy-benzo[b]thiophene-2-carboxylic acid (1H-tetrazol-5-yl)-amide], 986 nM.
Under `COc1cc2sc(C(=O)Nc3nnn[nH]3)c(OCc3ccccc3OCC3CCCCC3)c2cc1OC` [Example C.20, 3-(2-Cyclohexylmethoxy-benzyloxy)-5,6-dimethoxy-benzo[b]thiophene-2-carboxylic acid (1H-tetrazol-5-yl)-amide] stands 410 nM; under `COc1cc2c(Oc3ccc(C(C)C)cc3)c(C(=O)Nc3nn[nH]n3)sc2cc1C` [Example B.12, 3-(4-Isopropyl-phenoxy)-5-methoxy-6-methyl-benzo[b]thiophene-2-carboxylic acid (2H-tetrazol-5-yl)-amide], 17 nM; under `COc1cc2c(Oc3ccc(OC4CCCCC4)cc3)c(C(=O)Nc3nn[nH]n3)sc2cc1C` [Example B.22, 3-(4-Cyclohexyloxy-phenoxy)-5-methoxy-6-methyl-benzo[b]thiophene-2-carboxylic acid (2H-tetrazol-5-yl)-amide], 18 nM.
Regarding `COc1cc2c(Oc3ccc(C4(C)CCCCC4)cc3)c(C(=O)Nc3nn[nH]n3)sc2cc1C` [Example B.26, 5-Methoxy-6-methyl-3-[4-(1-methyl-cyclohexyl)-phenoxy]-benzo[b]thiophene-2-carboxylic acid (2H-tetrazol-5-yl)-amide], the IC50 was 67 nM.
Under `COc1cc2sc(C(=O)Nc3nnn[nH]3)c(Oc3ccc(CCCSc4ccc(Cl)cc4)cc3)c2cc1C` [Example D.8, 3-{4-[3-(4-Chlorophenenyl)sulfanylpropyl]phenoxy}-6-methoxy-5-methylbenzo[b]thiophene-2-caboxylic acid(1H-tetrazolyl)amide trifluroacetic acid salt] stands 2610 nM; under `COc1cc2c(Oc3cccnc3)c(C(=O)Nc3nn[nH]n3)sc2cc1C` [Example B.46, 5-Methoxy-6-methyl-3-(pyridin-3-yloxy)-benzo[b]thiophene-2-carboxylic acid (2H-tetrazol-5-yl)-amide], 120 nM.
For the molecule `COc1cc2c(Oc3ccc(OC4CCCCCC4)cc3)c(C(=O)Nc3nn[nH]n3)sc2cc1C` [Example B.21, 3-(4-Cycloheptyloxy-phenoxy)-5-methoxy-6-methyl-benzo[b]thiophene-2-carboxylic acid (2H-tetrazol-5-yl)-amide], the IC50 worked out at 43 nM.
The figure for `COc1cc2sc(C(=O)Nc3nnn[nH]3)c(OCc3cccc4c3CCCC4)c2cc1OC` [Example C.24, 5,6-Dimethoxy-3-(5,6,7,8-tetrahydro-naphthalen-1-ylmethoxy)-benzo[b]thiophene-2-carboxylic acid (1H-tetrazol-5-yl)-amide] is 255 nM; for `CCc1cccc(Oc2c(C(=O)Nc3nn[nH]n3)sc3ccc(OC)cc23)c1` [Example A.11, 3-(3-Ethyl-phenoxy)-5-Methoxy-benzo[b]thiophene-2-carboxylic acid (2H-tetrazol-5-yl)-amide] it is 160 nM; for `COc1cc2sc(C(=O)Nc3nnn[nH]3)c(O[C@@H](C)Cc3ccccc3)c2cc1OC` [Example C.29, 5,6-Dimethoxy-3-((S)-1-methyl-2-phenyl-ethoxy)-benzo[b]thiophene-2-carboxylic acid (1H-tetrazol-5-yl)-amide] it is 145 nM.
Under `COc1cc2c(Oc3ccc(C4CCCCC4)cc3)c(C(=O)Nc3nnn(C)n3)sc2cc1C` [Example K.1, 3-(4-Cyclohexyl-phenoxy)-5-methoxy-6-methyl-benzo[b]thiophene-2-carboxylic acid (2-methyl-2H-tetrazol-5-yl)-amide] stands 1930 nM.
`COc1cc2sc(C(=O)Nc3nnn[nH]3)c(OCc3ccncc3)c2cc1OC` [Example C.18, 5,6-Dimethoxy-3-(pyridin-4-ylmethoxy)-benzo[b]thiophene-2-carboxylic acid (1H-tetrazol-5-yl)-amide]: the IC50 is 450 nM.
